Source: US20160106100A1, “MICROBICIDAL COMPOSITION COMPRISING AN ISOTHIAZOLONE AND AN AMINE OXIDE” (priority 2013, published 2016)

Assays:
Type in all cases: cell-based
[1] = test system: Candida albicans (ATCC 10231); assay: MIC and synergy index of MIT + N,N-Dimethyldodecan-1-amine oxide in Muller Hinton Broth; conditions: for MHK: alone, 72 hours at 25° C.; for Synergistic Index / Total: single biocide alone
Procedure: Furthermore, the synergism of a combination of 2-Methyl-isothiazolinone (MIT) with N,N-Dimethyldodecan-1-amine oxide was tested using Candida albicans (ATCC 10231). For the purpose of the test, mixtures containing different concentrations of MIT and N,N-Dimethyldodecan-1-amine oxide were prepared and tested for their action on Candida albicans. The active compound mixtures in the corresponding concentrations were introduced into selective nutrient media (Muller Hinton Broth). The cell density in the broth was in each case 1.0-10^6 spores per ml. The incubation time is 72 hours at 25° C. This was followed by visual testing for growth of Candida albicans. In this way the minimum inhibitory concentrations (MICs) of the two active compounds were determined, individually and in combination. The synergism that occurred was presented numerically by calculation of the synergy index (SI).

[2] = test system: Aspergillus niger (DSM 12623); assay: MIC and synergy index of MIT + N,N-Dimethyldodecan-1-amine oxide in Sabouraud glucose agar; conditions: for Synergy Index (Qa/QA + Qb/QB): sole biocide
Procedure: The synergism of a combination of 2-Methyl-isothiazolinone (MIT) with N,N-Dimethyldodecan-l-amine oxide was tested. Test organisms used was the mould Aspergillus niger (DSM 12623). For the purpose of the test, mixtures containing different concentrations of MIT and N,N-Dimethyldodecan-1-amine oxide were prepared and tested for their action on Aspergillus niger. The active compound mixtures in the corresponding concentrations were introduced into selective nutrient media (Sabouraud glucose agar for Aspergillus niger and the test organisms were likewise incorporated into the agar. The cell density in the agar was in each case 3.7·10^6 spores per ml for Aspergillus niger. The incubation time is 72 hours at 25° C. This was followed by visual testing for growth of Aspergillus niger. The growth was apparent through the formation of colonies or mycelia on the surface of the agar. In this way the minimum inhibitory concentrations (MICs) of the two active compounds were determined, individually and in combination. The MIC is the concentration at which there is no formation of colonies or mycelia on the surface of the agar ( Aspergillus niger).
The synergism that occurred was presented numerically by calculation of the synergy index (SI). This calculation was made using the common method of F. C. Kull et al., Applied Microbiology, vol. 9 (1961), p. 538. SI is calculated there in accordance with the following formula:
Synergy index SI=Qa/QA+Qb/QB
If the synergy index has a value of more than 1, this means that there is an antagonism. If the synergy index adopts a value of 1, this means that the action of the two biocides is additive. If the synergy index takes on a value of below 1, this means that there is synergism of the two biocides.
Calculation of the synergy index of N,N-Dimethyldodecan-1-arnine oxide+MIT in respect of Aspergillus niger for an incubation time of 72 hours at 25° C.

Aspergillus niger = assay: MIC and synergy index of ternary mixture Benzalkoniumchloride, N,N-Dimethyldodecan-1-amine oxide and MIT; conditions: used alone
Procedure: In a further Experiment the synergy index of a ternary mixture of Benzalkoniumchloride, N,N-Dimethyldodecan-1-amine oxide and MIT was determined in respect of Aspergillus niger for an incubation time of 72 hours at 25 ° C.
The synergy of an active substance mixture that contains Benzalkoniumchloride in addition to N,N-Dimethyldodecan-1-amine oxide and MIT, against the microorganism Aspergillus niger is shown as in Table 4.

Compound	MHK [1]	Synergistic Index [1]	Total [1]	MIC ([2]; Aspergillus niger, DSM12623, 72 h)	Synergy Index (Qa/QA + Qb/QB) [2]	Synergistic Index (Aspergillus niger)	MHK (Aspergillus niger; 72 hours at 25 ° C.)	MIC ([2]; as sole biocide, 72 hours at 25° C.)
CCCCCCCCCCCC[N+](C)(C)[O-] [N,N-Dimethyldodecan-1-amine oxide]	50 ppm	1.00	50 ppm	231 µg/mL	1.00	–	–	–
Benzalkoniumchloride [BAC]	–	–	–	–	–	1.00	80 ppm	–
Cn1sccc1=O [MIT, 2-methylisothiazolin-3-one]	125 ppm	1.00	125 ppm	–	1.00	–	–	1000 (MIC) ppm
